Measurements reported in ChEMBL document CHEMBL3997794, “Design and synthesis of benzodiazepine analogs as isoform-selective human lysine deacetylase inhibitors” (Eur J Med Chem, 2017).
pIC50: −log10 of the molar value.

Key:
[1] = target: T1, Histone deacetylase 8 (Homo sapiens) (UniProt Q9BY41); assay: Inhibition of human KDAC8 at 30 uM after 60 mins by fluorescence assay relative to control
T1 sequence (whole entry): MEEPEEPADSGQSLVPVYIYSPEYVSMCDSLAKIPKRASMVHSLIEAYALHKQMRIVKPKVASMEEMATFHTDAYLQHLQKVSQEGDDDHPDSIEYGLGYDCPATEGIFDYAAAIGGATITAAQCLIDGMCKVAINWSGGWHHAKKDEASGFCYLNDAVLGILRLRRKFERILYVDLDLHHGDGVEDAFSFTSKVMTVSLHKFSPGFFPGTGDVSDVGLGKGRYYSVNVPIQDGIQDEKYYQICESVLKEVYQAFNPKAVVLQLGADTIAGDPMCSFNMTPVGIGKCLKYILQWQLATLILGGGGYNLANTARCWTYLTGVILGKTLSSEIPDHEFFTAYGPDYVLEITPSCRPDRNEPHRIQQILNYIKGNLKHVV

[2] = target: T2, Histone deacetylase 8 (Homo sapiens, UniProt Q9BY41); assay: Inhibition of human KDAC8 after 60 mins by fluorescence assay
T2 sequence (Q9BY41 whole entry): T1 sequence (whole entry)

[3] = target: T3, Protein deacetylase HDAC6 (Homo sapiens) (UniProt Q9UBN7); conditions: at 30 µM
T3 sequence (whole entry): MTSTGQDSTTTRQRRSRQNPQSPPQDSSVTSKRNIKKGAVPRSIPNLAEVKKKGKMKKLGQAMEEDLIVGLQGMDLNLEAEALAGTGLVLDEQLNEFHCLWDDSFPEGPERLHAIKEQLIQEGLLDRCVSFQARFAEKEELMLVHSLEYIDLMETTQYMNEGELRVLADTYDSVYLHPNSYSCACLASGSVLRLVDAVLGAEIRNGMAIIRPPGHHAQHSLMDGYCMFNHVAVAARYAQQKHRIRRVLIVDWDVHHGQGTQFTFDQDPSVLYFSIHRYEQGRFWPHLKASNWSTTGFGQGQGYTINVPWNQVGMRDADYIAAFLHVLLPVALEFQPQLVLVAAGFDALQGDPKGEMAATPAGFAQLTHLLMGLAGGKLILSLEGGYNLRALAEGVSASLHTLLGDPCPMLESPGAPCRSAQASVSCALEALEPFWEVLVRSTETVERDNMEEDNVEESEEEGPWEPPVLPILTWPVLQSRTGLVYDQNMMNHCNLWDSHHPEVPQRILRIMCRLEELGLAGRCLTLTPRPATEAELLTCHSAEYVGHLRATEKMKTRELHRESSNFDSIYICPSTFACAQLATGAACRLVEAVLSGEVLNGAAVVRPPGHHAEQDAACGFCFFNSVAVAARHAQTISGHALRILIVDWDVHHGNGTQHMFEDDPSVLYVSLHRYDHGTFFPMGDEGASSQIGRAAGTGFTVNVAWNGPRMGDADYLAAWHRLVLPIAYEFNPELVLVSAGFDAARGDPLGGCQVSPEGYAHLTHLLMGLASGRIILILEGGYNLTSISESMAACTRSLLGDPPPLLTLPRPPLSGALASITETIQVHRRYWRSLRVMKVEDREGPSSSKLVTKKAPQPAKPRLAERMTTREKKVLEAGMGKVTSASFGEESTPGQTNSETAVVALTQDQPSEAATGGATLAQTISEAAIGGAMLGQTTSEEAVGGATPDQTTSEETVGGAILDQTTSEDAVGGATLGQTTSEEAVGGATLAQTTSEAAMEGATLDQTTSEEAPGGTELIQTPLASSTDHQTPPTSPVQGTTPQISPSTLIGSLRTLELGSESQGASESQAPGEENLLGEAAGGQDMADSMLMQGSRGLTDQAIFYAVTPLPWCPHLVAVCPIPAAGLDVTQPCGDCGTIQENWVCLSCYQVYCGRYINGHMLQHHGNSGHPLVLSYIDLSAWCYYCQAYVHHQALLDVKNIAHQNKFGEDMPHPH
Description: Inhibition of human KDAC6 at 30 uM using FITC-labeled histone H4 acetylated peptide as substrate after 60 mins by fluorescence assay relative to control

[4] = target: T4, Protein deacetylase HDAC6 (Homo sapiens, UniProt Q9UBN7); assay: Inhibition of human KDAC6 using FITC-labeled histone H4 acetylated peptide as substrate after 60 mins by fluorescence assay
T4 sequence (Q9UBN7 whole entry): T3 sequence (whole entry)

[5] = target: T5, Histone deacetylase 1 (Homo sapiens, UniProt Q13547); assay: Inhibition of human KDAC1 using substrate A after 60 mins by fluorescence assay
T5 sequence (Q13547 whole entry): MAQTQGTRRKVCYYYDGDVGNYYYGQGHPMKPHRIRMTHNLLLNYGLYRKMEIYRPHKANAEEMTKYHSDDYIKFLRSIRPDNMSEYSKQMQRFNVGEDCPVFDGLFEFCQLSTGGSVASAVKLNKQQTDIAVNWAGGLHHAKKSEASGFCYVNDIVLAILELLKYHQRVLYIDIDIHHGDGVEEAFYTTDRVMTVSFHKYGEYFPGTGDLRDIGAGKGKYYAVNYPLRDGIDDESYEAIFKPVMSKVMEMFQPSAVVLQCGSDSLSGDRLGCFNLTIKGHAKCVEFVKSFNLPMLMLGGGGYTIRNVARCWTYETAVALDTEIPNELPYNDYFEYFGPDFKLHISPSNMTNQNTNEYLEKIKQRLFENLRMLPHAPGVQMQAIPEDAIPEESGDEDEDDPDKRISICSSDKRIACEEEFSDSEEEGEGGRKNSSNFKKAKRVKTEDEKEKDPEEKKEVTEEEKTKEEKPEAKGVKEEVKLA

[6] = target: T6, Histone deacetylase 3 (Homo sapiens, UniProt O15379); assay: Inhibition of human KDAC3 using FITC-labeled p53 acetylated peptide as substrate after 60 mins by fluorescence assay
T6 sequence (O15379 whole entry): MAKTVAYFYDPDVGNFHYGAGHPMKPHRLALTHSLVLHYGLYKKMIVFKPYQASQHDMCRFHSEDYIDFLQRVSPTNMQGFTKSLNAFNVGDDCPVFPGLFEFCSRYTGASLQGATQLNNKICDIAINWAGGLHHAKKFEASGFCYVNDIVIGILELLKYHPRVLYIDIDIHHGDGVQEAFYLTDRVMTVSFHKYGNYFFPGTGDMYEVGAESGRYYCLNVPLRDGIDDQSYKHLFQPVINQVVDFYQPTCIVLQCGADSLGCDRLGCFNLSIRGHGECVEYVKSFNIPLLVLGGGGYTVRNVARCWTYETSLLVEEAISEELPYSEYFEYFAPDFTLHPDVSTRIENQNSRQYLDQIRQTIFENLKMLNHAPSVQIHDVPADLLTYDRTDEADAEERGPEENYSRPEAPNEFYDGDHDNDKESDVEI

[7] = target: T6, Histone deacetylase 3; assay: Inhibition of human KDAC3 at 30 uM using FITC-labeled p53 acetylated peptide as substrate after 60 mins by fluorescence assay relative to control
[8] = target: T5, Histone deacetylase 1; assay: Inhibition of human KDAC1 at 30 uM using substrate A after 60 mins by fluorescence assay relative to control

Row | SMILES | inhibition [1] | pIC50 [2] | inhibition [3] | pIC50 [4] | pIC50 [5] | pIC50 [6] | inhibition [7] | inhibition [8]
1 | CC(C)(C)OC(=O)n1c(C[C@@H]2N=C(c3ccccc3)c3ccccc3N(CCCCC(=O)NO)C2=O)cc2ccccc21 | 79.7% | 5.08 | 85% | 5.16 | < 4.52 | 5.28 | 93.1% | 46.9%
2 | CC(C)(C)OC(=O)n1cc(C[C@@H]2N=C(c3ccccc3)c3ccccc3NC2=O)c2ccccc21 | 0% | < 4.52 | 0% | < 4.52 | < 4.52 | < 4.52 | 1.32% | 6.47%
3 | O=C(CC[C@@H]1N=C(c2ccccc2)c2ccccc2NC1=O)NC(c1ccccc1)(c1ccccc1)c1ccccc1 | 0% | < 4.52 | 0% | < 4.52 | < 4.52 | < 4.52 | 0% | 7.59%
4 | O=C(O)CCCCN1C(=O)CN=C(c2ccccc2)c2ccccc21 | 4.33% | < 4.52 | 0% | < 4.52 | < 4.52 | < 4.52 | 0% | 6.45%
5 | O=C(O)CC[C@@H]1N=C(c2ccccc2)c2ccccc2NC1=O | 0% | < 4.52 | 0% | < 4.52 | < 4.52 | < 4.52 | 0% | 2.44%
6 | CC(C)(C)OC(=O)CC[C@@H]1N=C(c2ccccc2)c2ccccc2NC1=O | 1.79% | < 4.52 | 0.01% | < 4.52 | < 4.52 | < 4.52 | 0% | 5.85%
7 | O=C1Nc2ccccc2C(c2ccccc2)=N[C@H]1Cc1ccccc1 | 0% | < 4.52 | 3.33% | < 4.52 | < 4.52 | < 4.52 | 0% | 0.91%
8 | O=C(CCCCN1C(=O)[C@H](Cc2cncn2C(c2ccccc2)(c2ccccc2)c2ccccc2)N=C(c2ccccc2)c2ccccc21)NO | 1.38% | < 4.52 | 89.9% | 5.32 | < 4.52 | 5.59 | 93.4% | 22.3%
9 | O=C(CCCNC(=O)CC[C@@H]1N=C(c2ccccc2)c2ccccc2NC1=O)NO | 33.6% | < 4.52 | 83.5% | 5.15 | 4.64 | 5.29 | 87.2% | 55.8%
10 | NCCCC[C@@H]1N=C(c2ccccc2)c2ccccc2N(CCCCC(=O)NO)C1=O | 7.7% | < 4.52 | 73.4% | 4.92 | 5.18 | 6.02 | 99.1% | 79.5%
11 | O=C(C[C@H]1N=C(c2ccccc2)c2ccccc2NC1=O)NO | 19% | < 4.52 | 0% | < 4.52 | < 4.52 | < 4.52 | 1.64% | 9.14%
12 | CC(C)C[C@@H]1N=C(c2ccccc2)c2ccccc2N(CCCCC(=O)NO)C1=O | 45.2% | < 4.52 | 91.6% | 5.63 | 5.23 | 6.24 | 98.5% | 80.5%
13 | O=C(C[C@@H]1N=C(c2ccccc2)c2ccccc2NC1=O)NO | 12.2% | < 4.52 | 0.88% | < 4.52 | < 4.52 | < 4.52 | 0% | 9.99%
14 | O=C1Nc2ccccc2C(c2ccccc2)=N[C@H]1Cc1cn(C(c2ccccc2)(c2ccccc2)c2ccccc2)cn1 | 13.4% | < 4.52 | 12.3% | < 4.52 | < 4.52 | < 4.52 | 0% | 8.26%
15 | CC(C)[C@@H]1N=C(c2ccccc2)c2ccccc2N(CCCCC(=O)O)C1=O | 3.18% | < 4.52 | 0% | < 4.52 | < 4.52 | < 4.52 | 0% | 2.24%
16 | O=C(CCCCN1C(=O)[C@H](Cc2cc3ccccc3[nH]2)N=C(c2ccccc2)c2ccccc21)NO | 34.1% | < 4.52 | 93.2% | 5.71 | 4.77 | 6.00 | 98.9% | 60%
17 | COC(=O)CCCCN1C(=O)[C@H](C(C)C)N=C(c2ccccc2)c2ccccc21 | 9.56% | < 4.52 | 0% | < 4.52 | < 4.52 | < 4.52 | 0% | 12.5%
18 | CC(C)(C)OC(=O)NCCCC[C@@H]1N=C(c2ccccc2)c2ccccc2N(CCCCC(=O)NO)C1=O | 56% | 4.66 | 89.9% | 5.51 | 5.33 | 6.23 | 98.8% | 84.4%
19 | Cc1c(C)c(S(=O)(=O)NC(=N)NCCC[C@@H]2N=C(c3ccccc3)c3ccccc3N(CCCCC(=O)NO)C2=O)c(C)c2c1OC(C)(C)C2 | 22.6% | < 4.52 | 70.2% | 4.79 | < 4.52 | 5.37 | 94.6% | 39.1%
